# Earlier results as cited in US5143902A, “Glucagon analogs with ASP^9 replacements or deletions” (The Rockefeller University, priority 1991, dated 1992).
# Experiments:
# Details in all cases: background
# glucagon receptor = test system: glucagon receptor
# [1] = test system: another binding system in the hepatocyte membrane
# adenylate cyclase = test system: adenylate cyclase
substance,measurement,setting,value
Nα- trinitrophenyl [12-homoarginine] glucagon,binding to the glucagon receptor,glucagon receptor,does bind to the glucagon receptor
same,activation of another binding system producing inositol trisphosphate and calcium ions,[1],activates another binding system in the hepatocyte membrane leading to the production of inositol trisphosphate and calcium ions
same,activation of adenylate cyclase,adenylate cyclase,without significant activation of adenylate cyclase
